Target: T1, BTK (Homo sapiens, UniProt Q06187)
T1 construct: purchased Upstate 14-552
Assay: In vitro BTK kinase assay: BTK-POLYGAT-LS ASSAY
Type: biochemical
Conditions: ATP 10 uM
In short: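 BTK phosphorylation of polyGAT (100 nM final) with ATP at 10 μM final, 10 mM Tris-HCl pH 7.5 kinase buffer, quenched by EDTA after 30 min. Potency given as IC50.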

T1 sequence (Q06187 whole entry): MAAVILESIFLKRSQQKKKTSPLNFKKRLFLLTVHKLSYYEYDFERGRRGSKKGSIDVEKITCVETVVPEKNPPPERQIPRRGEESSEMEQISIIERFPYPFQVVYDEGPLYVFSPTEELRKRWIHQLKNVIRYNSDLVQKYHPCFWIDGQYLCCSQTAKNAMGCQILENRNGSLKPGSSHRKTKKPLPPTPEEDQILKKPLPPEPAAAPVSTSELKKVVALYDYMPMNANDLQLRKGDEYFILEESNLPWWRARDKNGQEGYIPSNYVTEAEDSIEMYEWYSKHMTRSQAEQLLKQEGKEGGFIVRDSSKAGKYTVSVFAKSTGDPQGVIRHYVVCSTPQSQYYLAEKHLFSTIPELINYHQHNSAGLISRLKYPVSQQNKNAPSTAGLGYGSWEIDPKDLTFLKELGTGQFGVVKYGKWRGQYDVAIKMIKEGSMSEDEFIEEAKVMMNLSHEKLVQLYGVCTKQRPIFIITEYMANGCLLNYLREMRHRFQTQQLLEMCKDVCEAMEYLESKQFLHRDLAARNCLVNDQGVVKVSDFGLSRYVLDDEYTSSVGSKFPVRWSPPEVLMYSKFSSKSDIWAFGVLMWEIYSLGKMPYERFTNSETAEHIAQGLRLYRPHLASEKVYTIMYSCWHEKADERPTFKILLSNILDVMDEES

Row | SMILES | IC50 [nM]
1 | O=C(N[C@@H]1CCCN(c2ncnc3[nH]ccc23)C1)[C@@H](Cc1ccccc1)Nc1ccccc1 [Example 104, (R)—N—((R)-1-(7H-pyrrolo[2,3-d]pyrimidin-4-yl)piperidin-3-yl)-3-phenyl-2-(phenylamino)propanamide] | 1000 to 10000
2 | O=C(CNc1cccc(-n2cccc2)c1)N[C@@H]1CCCN(c2ncnc3[nH]ccc23)C1 [Example 303] | 100 to 999
3 | CS(=O)(=O)c1ccccc1NCC(=O)N[C@@H]1CCCN(c2ncnc3[nH]ccc23)C1 [Example 450] | 1000 to 10000
4 | CC(C)Oc1cccc(NCC(=O)N[C@@H]2CCCN(c3ncnc4[nH]ccc34)C2)c1 [Example 315] | 100 to 999
5 | Cc1cc(NCC(=O)N[C@@H]2CCCN(c3ncnc4[nH]ccc34)C2)ccc1Cl [Example 415] | 1000 to 10000
6 | CC(C)Oc1cccc(NCC(=O)NC2CCCN(c3ncnc4[nH]ccc34)C2)c1 (stereo not drawn) [Example 50, (N-(1-(7H-pyrrolo[2,3-d]pyrimidin-4-yl)piperidin-3-yl)-2-(3-isopropoxyphenylamino)acetamide)] | 1000 to 10000
7 | O=C(N[C@@H]1CCCN(c2ncnc3[nH]ccc23)C1)[C@H]1CCc2ccccc2N1 [Example 14, (R)—N—((R)-1-(7H-pyrrolo[2,3-d]pyrimidin-4-yl)piperidin-3-yl)-1,2,3,4-tetrahydroquinoline-2-carboxamide] | 1000 to 10000
8 | Cc1cc(Cl)ccc1NCC(=O)N[C@@H]1CCCN(c2ncnc3[nH]ccc23)C1 [Example 419] | 100 to 999
9 | Cc1ccc(F)c(NCC(=O)N[C@@H]2CCCN(c3ncnc4[nH]ccc34)C2)c1 [Example 386] | 100 to 999
10 | O=C(CNc1cccc(N2CCCC2)c1)NC1CCCN(c2ncnc3[nH]ccc23)C1 (stereo not drawn) [Example 56, (N-(1-(7H-pyrrolo[2,3-d]pyrimidin-4-yl)piperidin-3-yl)-2-(3-(pyrrolidin-1-yl)phenylamino)acetamide)] | 100 to 999
11 | O=C(CNc1c(F)ccc(F)c1F)N[C@@H]1CCCN(c2ncnc3[nH]ccc23)C1 [Example 411] | 100 to 999
12 | O=C(CNc1cccc(CN2CCCCC2)c1)NC1CCCN(c2ncnc3[nH]ccc23)C1 (stereo not drawn) [Example 346] | > 10000
13 | O=C(CNc1cccc(OC2CCCC2)c1)N[C@@H]1CCCN(c2ncnc3[nH]ccc23)C1 [Example 281] | 100 to 999
14 | NC(=O)c1c(N)ncnc1N1CCC[C@@H](NC(=O)CNc2cc(Cl)cc(Cl)c2)C1 [Example 326] | 100 to 999
15 | O=C(CNc1cc(F)c(F)cc1F)N[C@@H]1CCCN(c2ncnc3[nH]ccc23)C1 [Example 453] | 100 to 999
16 | Cn1nc(C(C)(C)C)cc1NCC(=O)NC1CCCN(c2ncnc3[nH]ccc23)C1 (stereo not drawn) [Example 57, (N-(1-(7H-pyrrolo[2,3-d]pyrimidin-4-yl)piperidin-3-yl)-2-(3-ten-butyl-1-methyl-1H-pyrazol-5-ylamino)acetamide)] | 1000 to 10000
17 | C[C@@H](Nc1cccc(Cl)c1)C(=O)N[C@@H]1CCCN(c2ncnc3[nH]ccc23)C1 [Example 238] | < 100
18 | O=C(CNCC1CCCCC1)NC1CCCN(c2ncnc3[nH]ccc23)C1 (stereo not drawn) [Example 357] | > 10000
19 | O=C(CNc1ccccc1F)N[C@@H]1CCCN(c2ncnc3[nH]ccc23)C1 [Example 318] | 100 to 999
20 | COc1cccc(NCC(=O)N[C@@H]2CCCN(c3ncnc4[nH]ccc34)C2)c1 [Example 322] | 100 to 999
21 | C[C@@H](Nc1cc(F)cc(Cl)c1)C(=O)N[C@@H]1CCCN(c2ncnc3[nH]ccc23)C1 [Example 232] | < 100
22 | CC(C)c1ccccc1NCC(=O)N[C@@H]1CCCN(c2ncnc3[nH]ncc23)C1 [Example 219] | < 100
23 | O=C(CNc1cc(F)cc(C(F)(F)F)c1)N[C@@H]1CCCN(c2ncnc3[nH]ccc23)C1 [Example 264] | < 100

Row | SMILES | IC50 [nM]
24 | N#Cc1ccccc1NCC(=O)N[C@@H]1CCCN(c2ncnc3[nH]ccc23)C1 [Example 433] | 1000 to 10000
25 | O=C(CNc1ccccc1Cl)N[C@@H]1CCCN(c2ncnc3[nH]ccc23)C1 [Example 236] | < 100
26 | O=C(CNc1cccc(Cl)c1Cl)N[C@@H]1CCCN(c2ncnc3[nH]ccc23)C1 [Example 299] | 100 to 999
27 | CCN(C(C)C)S(=O)(=O)c1ccccc1NCC(=O)N[C@@H]1CCCN(c2ncnc3[nH]ncc23)C1 [Example 196] | < 100
28 | Cn1cccc(NCC(=O)NC2CCCN(c3ncnc4[nH]ccc34)C2)c1=O (stereo not drawn) [Example 342] | > 10000
29 | CN(C1CCCC1)S(=O)(=O)c1ccccc1NCC(=O)N[C@@H]1CCCN(c2ncnc3[nH]ncc23)C1 [Example 211] | < 100
30 | O=C(CNC(=O)C1CCCCC1)NC1CCCN(c2ncnc3[nH]ccc23)C1 (stereo not drawn) [Example 99, (N-(2-(1-(7H-pyrrolo[2,3-d]pyrimidin-4-yl)piperidin-3-ylamino)-2-oxoethyl)cyclohexanecarboxamide)] | 1000 to 10000
31 | O=C(CNC1c2ccccc2-c2ccccc21)N[C@@H]1CCCN(c2ncnc3[nH]ccc23)C1 [Example 459] | 1000 to 10000
32 | C[C@H](O)[C@@H](Nc1cc(F)cc(Cl)c1)C(=O)N[C@@H]1CCCN(c2ncnc3[nH]ccc23)C1 [Example 206] | < 100
33 | CC1(C)CCN(S(=O)(=O)c2ccccc2NCC(=O)N[C@@H]2CCCN(c3ncnc4[nH]ccc34)C2)CC1 [Example 250] | < 100
34 | Cc1ccccc1NCC(=O)N[C@@H]1CCCN(c2ncnc3[nH]ccc23)C1 [Example 268] | 100 to 999
35 | CC(C)[C@@H](Nc1ccccc1)C(=O)N[C@@H]1CCCN(c2ncnc3[nH]ccc23)C1 [Example 103, (R)—N—((R)-1-(7H-pyrrolo[2,3-d]pyrimidin-4-yl)piperidin-3-yl)-3-methyl-2-(phenylamino)butanamide] | 100 to 999
36 | C[C@@H](O)[C@@H](Nc1cc(F)cc(Cl)c1)C(=O)N[C@@H]1CCCN(c2ncnc3[nH]ccc23)C1 [Example 307] | 100 to 999
37 | O=C(N[C@@H]1CCCN(c2ncnc3[nH]ccc23)C1)[C@H](Nc1ccccc1)C1CC1 [Example 107, (R)—N—((R)-1-(7H-pyrrolo[2,3-d]pyrimidin-4-yl)piperidin-3-yl)-2-cyclopropyl-2-(phenylamino)acetamide] | < 100
38 | CC(C)Oc1ccccc1NCC(=O)N[C@@H]1CCCN(c2ncnc3[nH]ccc23)C1 [Example 248] | 100 to 999
39 | O=C(CNc1cccc(Oc2ccccc2)c1)NC1CCCN(c2ncnc3[nH]ccc23)C1 (stereo not drawn) [Example 42, (N-(1-(7H-pyrrolo[2,3-d]pyrimidin-4-yl)piperidin-3-yl)-2-(3-phenoxyphenylamino)acetamide)] | 100 to 999
40 | CC1CCCN1S(=O)(=O)c1ccccc1NCC(=O)N[C@@H]1CCCN(c2ncnc3[nH]ncc23)C1 (stereo partly drawn) [Example 189] | < 100
41 | O=C(CNc1ccccc1)N[C@@H]1CCN(c2ncnc3[nH]ccc23)C1 [Example 360] | > 10000
42 | CS(=O)(=O)c1cccc(NCC(=O)NC2CCCN(c3ncnc4[nH]ccc34)C2)c1 (stereo not drawn) [Example 28, (N-(1-(7H-pyrrolo[2,3-d]pyrimidin-4-yl)piperidin-3-yl)-2-(3-(methylsulfonyl)phenylamino)acetamide)] | 1000 to 10000
43 | CC(C)(C)[C@@H](Nc1cc(Cl)cc(Cl)c1)C(=O)N[C@@H]1CCCN(c2ncnc3[nH]ccc23)C1 [Example 202] | < 100
44 | CC[C@@H](Nc1cc(F)cc(Cl)c1)C(=O)N[C@@H]1CCCN(c2ncnc3[nH]ccc23)C1 [Example 225] | < 100
45 | COc1cc(NCC(=O)N[C@@H]2CCCN(c3ncnc4[nH]ccc34)C2)cc(C(F)(F)F)c1 [Example 327] | 100 to 999
